Results from ChEMBL document CHEMBL4316607, “Discovery of NR2B-selective antagonists via scaffold hopping and pharmacokinetic profile optimization” (Bioorg Med Chem Lett, 2019).

Legend:
[1] = target: Glutamate receptor ionotropic, NMDA 2B (Rattus norvegicus, UniProt Q00960); assay: Displacement of [3H]-ifenprodil from NR2B receptor in rat brain cerebral cortex membranes incubated for 120 mins by liquid scintillation counting method; assay type: cell membranes
[2] = target: Glutamate receptor ionotropic, NMDA 2B (Mus musculus, UniProt P35438+Q01097); assay: Antagonist activity at mouse NR2B receptor expressed in HEK293 cells co-expressing NR1 subunit assessed as reduction in glutamic acid/glycine-induced calcium ion influx by fluorescence based assay; assay type: cell-based
Glutamate receptor ionotropic, NMDA 2B (Mus musculus, UniProt P35438+Q01097), sequence (Q01097 whole entry, one chain of several): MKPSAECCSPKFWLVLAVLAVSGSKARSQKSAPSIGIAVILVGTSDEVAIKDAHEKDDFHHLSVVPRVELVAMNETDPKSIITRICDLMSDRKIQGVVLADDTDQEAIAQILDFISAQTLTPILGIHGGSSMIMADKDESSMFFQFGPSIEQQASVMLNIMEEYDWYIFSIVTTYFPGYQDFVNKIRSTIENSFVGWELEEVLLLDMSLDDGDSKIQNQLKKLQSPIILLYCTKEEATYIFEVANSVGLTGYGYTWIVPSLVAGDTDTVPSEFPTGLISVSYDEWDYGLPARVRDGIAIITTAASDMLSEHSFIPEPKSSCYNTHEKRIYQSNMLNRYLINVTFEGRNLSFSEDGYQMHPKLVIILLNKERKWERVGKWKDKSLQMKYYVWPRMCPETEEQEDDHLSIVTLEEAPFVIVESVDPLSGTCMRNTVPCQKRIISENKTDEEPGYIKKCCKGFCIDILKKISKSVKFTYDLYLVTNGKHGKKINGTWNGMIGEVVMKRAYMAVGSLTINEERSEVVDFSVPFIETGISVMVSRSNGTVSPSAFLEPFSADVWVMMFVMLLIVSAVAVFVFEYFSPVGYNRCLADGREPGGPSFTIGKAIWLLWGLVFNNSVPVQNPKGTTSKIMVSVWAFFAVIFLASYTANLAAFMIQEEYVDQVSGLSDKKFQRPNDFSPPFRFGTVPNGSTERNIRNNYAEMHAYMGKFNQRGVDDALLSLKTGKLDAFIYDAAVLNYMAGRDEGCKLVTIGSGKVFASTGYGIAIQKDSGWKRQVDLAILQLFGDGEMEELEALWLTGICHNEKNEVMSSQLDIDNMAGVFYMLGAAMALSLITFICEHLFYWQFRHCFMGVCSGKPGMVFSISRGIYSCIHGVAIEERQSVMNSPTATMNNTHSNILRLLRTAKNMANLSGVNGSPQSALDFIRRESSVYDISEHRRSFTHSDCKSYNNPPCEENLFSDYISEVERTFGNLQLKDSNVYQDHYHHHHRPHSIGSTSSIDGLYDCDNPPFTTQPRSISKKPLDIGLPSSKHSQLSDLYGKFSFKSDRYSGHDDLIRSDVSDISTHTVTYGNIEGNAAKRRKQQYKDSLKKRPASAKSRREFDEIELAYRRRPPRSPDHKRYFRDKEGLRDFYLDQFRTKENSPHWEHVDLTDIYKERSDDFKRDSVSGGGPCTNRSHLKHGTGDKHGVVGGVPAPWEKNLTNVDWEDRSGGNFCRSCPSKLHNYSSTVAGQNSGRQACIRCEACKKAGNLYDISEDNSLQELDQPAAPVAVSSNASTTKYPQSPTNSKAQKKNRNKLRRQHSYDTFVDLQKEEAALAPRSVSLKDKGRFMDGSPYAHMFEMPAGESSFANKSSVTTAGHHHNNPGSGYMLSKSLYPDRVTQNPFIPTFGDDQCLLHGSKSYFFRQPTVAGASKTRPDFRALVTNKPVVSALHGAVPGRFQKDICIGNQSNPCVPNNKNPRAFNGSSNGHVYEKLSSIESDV

[3] = Total clearance in Sprague-Dawley rat at 0.5 mg/kg, iv dosed via cassette dosing; assay type: ADME, organism-based; conditions: in vivo
[4] = Oral bioavailability in Sprague-Dawley rat at 1 mg/kg dosed via cassette dosing; assay type: ADME, organism-based; conditions: in vivo
[5] = […] coefficient, ratio of total drug level in brain to plasma in Sprague-Dawley rat at 0.5 mg/kg, iv dosed via cassette dosing measured after 0.5 hrs; assay type: ADME, organism-based; conditions: brain and plasma
[6] = test system: Rattus norvegicus; assay: Analgesic activity in rat model of partial sciatic nerve ligation model assessed as increase in pain threshold at 2.5 to 10 mg/kg, po measured after 3 hrs by Von Frey filament test; assay type: functional; conditions: read-out: MED
[7] = target: hERG (KCNH2) (Homo sapiens, UniProt Q12809); assay: Inhibition of human ERG expressed in HEK293 cells at 1 uM; assay type: cell-based; conditions: HEK293 cells expressing human ERG
hERG (KCNH2), sequence (Q12809 whole entry): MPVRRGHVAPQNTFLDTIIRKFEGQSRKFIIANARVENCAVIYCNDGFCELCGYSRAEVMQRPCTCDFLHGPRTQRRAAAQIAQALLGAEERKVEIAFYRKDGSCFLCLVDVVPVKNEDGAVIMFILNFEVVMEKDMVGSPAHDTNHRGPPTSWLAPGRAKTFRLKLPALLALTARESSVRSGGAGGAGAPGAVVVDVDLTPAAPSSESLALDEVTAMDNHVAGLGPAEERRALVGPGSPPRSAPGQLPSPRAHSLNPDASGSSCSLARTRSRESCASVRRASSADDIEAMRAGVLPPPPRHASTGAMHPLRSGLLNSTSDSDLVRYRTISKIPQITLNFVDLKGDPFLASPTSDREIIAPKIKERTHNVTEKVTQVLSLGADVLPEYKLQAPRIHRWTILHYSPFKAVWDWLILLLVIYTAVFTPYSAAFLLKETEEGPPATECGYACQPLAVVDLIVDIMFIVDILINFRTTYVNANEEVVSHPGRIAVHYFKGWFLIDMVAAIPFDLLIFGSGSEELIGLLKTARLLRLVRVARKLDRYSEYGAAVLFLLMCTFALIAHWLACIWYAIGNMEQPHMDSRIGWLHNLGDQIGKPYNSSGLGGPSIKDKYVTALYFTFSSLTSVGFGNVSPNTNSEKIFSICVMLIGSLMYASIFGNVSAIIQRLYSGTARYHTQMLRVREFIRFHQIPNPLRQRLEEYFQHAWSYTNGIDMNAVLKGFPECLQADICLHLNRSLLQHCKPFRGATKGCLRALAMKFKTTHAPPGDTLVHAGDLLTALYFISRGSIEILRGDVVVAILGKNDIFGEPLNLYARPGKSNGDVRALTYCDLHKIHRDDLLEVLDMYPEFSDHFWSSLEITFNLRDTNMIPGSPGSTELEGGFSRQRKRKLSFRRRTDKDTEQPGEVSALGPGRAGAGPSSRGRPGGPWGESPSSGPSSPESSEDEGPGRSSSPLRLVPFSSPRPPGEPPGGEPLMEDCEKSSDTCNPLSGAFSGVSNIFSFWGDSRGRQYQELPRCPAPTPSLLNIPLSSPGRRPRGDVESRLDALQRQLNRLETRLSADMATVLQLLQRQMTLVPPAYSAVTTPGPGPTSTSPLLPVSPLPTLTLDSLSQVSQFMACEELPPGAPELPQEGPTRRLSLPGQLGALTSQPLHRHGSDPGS

Glutamate receptor ionotropic, NMDA 2B (Rattus norvegicus, UniProt Q00960), sequence (Q00960 whole entry): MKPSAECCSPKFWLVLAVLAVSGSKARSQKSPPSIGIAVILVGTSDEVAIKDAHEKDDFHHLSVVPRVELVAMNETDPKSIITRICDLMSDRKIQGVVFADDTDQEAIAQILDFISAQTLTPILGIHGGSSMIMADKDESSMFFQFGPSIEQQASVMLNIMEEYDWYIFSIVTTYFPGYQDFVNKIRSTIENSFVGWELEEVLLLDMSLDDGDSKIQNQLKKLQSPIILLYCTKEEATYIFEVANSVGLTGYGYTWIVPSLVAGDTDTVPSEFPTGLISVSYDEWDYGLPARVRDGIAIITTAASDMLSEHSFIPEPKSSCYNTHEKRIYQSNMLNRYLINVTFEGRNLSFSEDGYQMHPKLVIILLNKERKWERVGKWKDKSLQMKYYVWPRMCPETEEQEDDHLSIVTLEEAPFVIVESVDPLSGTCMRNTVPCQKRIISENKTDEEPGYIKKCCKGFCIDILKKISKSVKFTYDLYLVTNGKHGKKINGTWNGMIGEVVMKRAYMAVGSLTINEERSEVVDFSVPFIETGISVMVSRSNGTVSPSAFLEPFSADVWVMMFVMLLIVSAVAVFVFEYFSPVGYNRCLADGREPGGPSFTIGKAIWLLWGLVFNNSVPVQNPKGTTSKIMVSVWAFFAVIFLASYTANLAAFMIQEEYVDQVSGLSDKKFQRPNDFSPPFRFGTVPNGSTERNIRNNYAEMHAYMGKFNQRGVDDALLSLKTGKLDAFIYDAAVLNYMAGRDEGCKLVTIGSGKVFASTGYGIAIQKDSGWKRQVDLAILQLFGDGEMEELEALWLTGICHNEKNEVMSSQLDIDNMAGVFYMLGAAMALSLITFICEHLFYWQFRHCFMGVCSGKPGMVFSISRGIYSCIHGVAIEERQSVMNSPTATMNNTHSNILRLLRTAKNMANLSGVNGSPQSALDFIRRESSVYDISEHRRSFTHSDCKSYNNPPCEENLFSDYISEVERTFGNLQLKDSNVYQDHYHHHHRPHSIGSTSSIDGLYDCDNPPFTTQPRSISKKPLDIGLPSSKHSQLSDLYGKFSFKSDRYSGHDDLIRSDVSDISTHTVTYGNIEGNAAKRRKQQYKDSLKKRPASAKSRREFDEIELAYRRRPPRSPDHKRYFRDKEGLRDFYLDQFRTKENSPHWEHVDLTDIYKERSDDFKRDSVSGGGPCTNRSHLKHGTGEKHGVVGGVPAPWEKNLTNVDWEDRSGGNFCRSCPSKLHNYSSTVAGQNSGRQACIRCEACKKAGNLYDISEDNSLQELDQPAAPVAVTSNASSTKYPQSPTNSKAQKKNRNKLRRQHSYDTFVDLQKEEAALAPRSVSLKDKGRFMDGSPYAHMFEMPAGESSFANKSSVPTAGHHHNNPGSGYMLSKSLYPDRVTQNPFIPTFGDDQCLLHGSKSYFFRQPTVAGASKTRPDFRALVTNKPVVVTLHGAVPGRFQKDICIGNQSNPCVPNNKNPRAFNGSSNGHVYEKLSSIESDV

Row | Structure (SMILES) | IC50 [1] | IC50 [2] | clearance [3] | bioavailability [4] | Kp at 0.5 h [5] | minimal effective dose [6] | inhibition at 1 µM [7]
1 | C[C@@H]1CN(C(=O)C(=O)Nc2ccc3[nH]c(=O)oc3c2)CCN1c1ccc(F)c(F)c1 | 63.1 nM | 10 nM | 15.9 mL/min/kg | 25.3% | 1.89 | – | –
2 | O=C(c1cc(-c2cc[nH]n2)on1)N1CCC(Cc2ccc(Cl)cc2)CC1 | 63.1 nM | 39.8 nM | 29.2 mL/min/kg | 0.6% | 3.27 | – | –
3 | O=C(c1cc(-c2cc[nH]n2)on1)N1CCC(Cc2ccc(F)cc2)CC1 | 79.4 nM | 63.1 nM | – | – | – | – | –
4 | C[C@@H]1CN(C(=O)C(=O)Nc2ccc3[nH]c(=O)oc3c2)CCN1c1ccc(Cl)cc1 | 63.1 nM | 6.31 nM | 15.6 mL/min/kg | 52.6% | 1.85 | 10 mg/kg | 25%
5 | O=C(Nc1ccc2[nH]c(=O)oc2c1)C(=O)N1CCN(c2ccccc2)CC1 | > 1000 nM | – | – | – | – | – | –
6 | C[C@H]1CN(C(=O)C(=O)Nc2ccc3[nH]c(=O)oc3c2)CCN1c1ccc(Cl)cc1 | 631 nM | 100 nM | – | – | – | – | –
7 | O=C(Nc1ccc2[nH]c(=O)oc2c1)C(=O)N1CCN(c2ccc(F)cc2)CC1 | 126 nM | 126 nM | 11.1 mL/min/kg | 39.3% | – | – | –
8 | O=C1CCc2cc(NC(=O)C(=O)N3CCN(c4ccc(Cl)cc4)CC3)ccc2N1 | > 1000 nM | – | – | – | – | – | –
9 | COc1ccc(N2CCN(C(=O)C(=O)Nc3ccc4[nH]c(=O)oc4c3)CC2)cc1 | 251 nM | 200 nM | – | – | – | – | –
10 | C[C@H]1CN(c2ccc(Cl)cc2)CCN1C(=O)C(=O)Nc1ccc2[nH]c(=O)oc2c1 | > 1000 nM | – | – | – | – | – | –
11 | O=C(c1cc(-c2ccc(=O)[nH]c2)on1)N1CCN(Cc2ccc(Cl)cc2)CC1 | > 1000 nM | – | – | – | – | – | –
12 | O=C(Nc1ccc2[nH]c(=O)oc2c1)C(=O)N1CCN(Cc2ccc(Cl)cc2)CC1 | 501 nM | 63.1 nM | 6.8 mL/min/kg | 7.4% | 0.41 | – | –
13 | O=C(c1cc(-c2ccc(=O)[nH]c2)on1)N1CCC(Cc2ccccc2)CC1 | 63.1 nM | 63.1 nM | 19.3 mL/min/kg | 18.4% | 0.37 | – | –
14 | O=C1Cc2cc(NC(=O)C(=O)N3CCN(c4ccc(Cl)cc4)CC3)ccc2N1 | > 1000 nM | – | – | – | – | – | –
15 | O[C@]1(Cc2cc(-c3cn[nH]c3)on2)CC[C@@H](Cc2ccc(C(F)(F)F)cc2)CC1 | 100 nM | 12.6 nM | 4 mL/min/kg | 67.5% | 2.66 | – | –
16 | O=C(c1cc(-c2cc[nH]n2)on1)N1CCC(Cc2ccccc2)CC1 | 79.4 nM | 50.1 nM | 71.6 mL/min/kg | 0.2% | 3.89 | – | –
17 | O=C(c1cc(-c2ccc(=O)[nH]c2)on1)N1CCN(c2ccc(Cl)cc2)CC1 | > 1000 nM | – | – | – | – | – | –
18 | O=C(Nc1ccc2[nH]c(=O)oc2c1)C(=O)N1CCN(c2cc(F)cc(F)c2)CC1 | 158 nM | 100 nM | – | – | – | – | –

Now those with a lower IC50 [1], led by results:

Row | IC50 [1] | IC50 [2] | clearance [3] | bioavailability [4] | Kp at 0.5 h [5] | Structure (SMILES) | minimal effective dose [6] | inhibition at 1 µM [7]
19 | 50.1 nM | 3.16 nM | 6 mL/min/kg | 32% | 1.19 | C[C@@H]1CN(C(=O)C(=O)Nc2ccc3[nH]c(=O)oc3c2)CCN1c1ccc(Cl)c(F)c1 | 2.5 mg/kg | 10%
20 | 50.1 nM | 39.8 nM | 19.7 mL/min/kg | 18.4% | 0.5 | O=C(c1cc(-c2ccc(=O)[nH]c2)on1)N1CCC(Cc2ccc(F)cc2)CC1 | – | –
21 | 50.1 nM | 6.31 nM | 5.6 mL/min/kg | 118% | 0.67 | C[C@@H]1CN(c2ccc(F)c(F)c2)CCN1C(=O)C(=O)Nc1ccc2[nH]c(=O)oc2c1 | – | –
22 | 31.6 nM | 10 nM | 18.3 mL/min/kg | 24.6% | 1.24 | O=C(Nc1ccc2[nH]c(=O)oc2c1)C(=O)N1CCN(c2ccc(F)c(Cl)c2)CC1 | – | –
23 | 31.6 nM | 6.31 nM | 5.4 mL/min/kg | 130% | 0.95 | C[C@@H]1CN(c2ccc(Cl)cc2)CCN1C(=O)C(=O)Nc1ccc2[nH]c(=O)oc2c1 | 10 mg/kg | 36%
24 | 25.1 nM | 6.31 nM | 15.1 mL/min/kg | 24.8% | 2.99 | O=C(Nc1ccc2[nH]c(=O)oc2c1)C(=O)N1CCN(c2ccc(C(F)(F)F)cc2)CC1 | – | –
25 | 25.1 nM | 10 nM | 5.4 mL/min/kg | 9.3% | 0.38 | O=C(c1cc(-c2ccc(=O)[nH]c2)on1)N1CCC(Cc2ccc(Cl)cc2)CC1 | – | –
26 | 20 nM | 10 nM | 4 mL/min/kg | 13% | 0.82 | O=C(Nc1ccc2[nH]c(=O)oc2c1)C(=O)N1CCN(c2ccc(F)c(F)c2)CC1 | – | –
27 | 15.8 nM | 1 nM | 5.6 mL/min/kg | 8.7% | 0.65 | O=C(Nc1ccc2[nH]c(=O)oc2c1)C(=O)N1CCN(c2ccc(C(F)(F)F)c(F)c2)CC1 | – | –
28 | 15.8 nM | – | 7.2 mL/min/kg | 17.8% | 0.53 | O=C(Nc1ccc2[nH]c(=O)oc2c1)C(=O)N1CCN(c2ccc(Cl)cc2)CC1 | – | –
29 | 15.8 nM | 15.8 nM | 101 mL/min/kg | 0.6% | 3.17 | COc1ccc(N2CCN(C(=O)C(=O)Nc3ccc4[nH]c(=O)oc4c3)CC2)cc1F | – | –
30 | 12.6 nM | – | 5.6 mL/min/kg | 28.2% | 0.79 | O=C(Nc1ccc2[nH]c(=O)oc2c1)C(=O)N1CCN(c2ccc(Cl)c(F)c2)CC1 | – | –
31 | 12.6 nM | 2 nM | 1.37 mL/min/kg | 30.4% | 0.99 | C[C@@H]1CN(c2ccc(Cl)c(F)c2)CCN1C(=O)C(=O)Nc1ccc2[nH]c(=O)oc2c1 | 5 mg/kg | 29%
